Source: PMC5488875 (Anticancer research, 2017)
pEC50: −log10 of the molar value.

Assays:
[1] = tested on: HeLa cervical cancer cell line; test: ROS assay; assay type: cell-based; details: 100 μM (highest concentration)
MDA-MB-231 cells [2] = test: ROS assay; assay type: cell-based
[3] = tested on: HT-29 colon cancer cell line; test: ROS assay; assay type: cell-based; details: HT-29, 100 μM (highest concentration)
MDA-MB-231 cells [4] = tested on: MDA-MB-231 cells

Question: With COC[C@H]1OC(=O)c2coc3c2[C@@]1(C)C1=C(C3=O)[C@@H]2CCC(=O)[C@@]2(C)C[C@H]1OC(C)=O [wortmannin] as the compound, how does the ROS inducing effect [1] read?
Answer: Strong ROS inducing effect

Question: What about the ROS inducing effect (MDA-MB-231 cells [2]; MDA-MB-231 breast cancer cells) of the same compound?
Answer: potent ROS inducing agent

Question: What about the “difference in concentration to exhibit the same ROS effect in the other two cancer cell lines” value (MDA-MB-231 cells [2]; MDA-MB-231 vs HeLa and HT-29) of the same compound?
Answer: 1000 x

Question: And the ROS inducing effect [3]?
Answer: Strong ROS inducing effect

Question: For acetylwortmannolone [Compound 1], which “ROS (reactive oxygen species fold increase)” value (MDA-MB-231 cells [2]; MDA-MB-231 cells, concentration not given) is on record?
Answer: 1.58 fold increase

Question: And the pEC50 (MDA-MB-231 cells [4])?
Answer: 5.05
